Data reported in patent US20240189315A1, “Cyclic Pyridine Derivatives as cGAS Inhibitors” (Boehringer Ingelheim International GmbH, priority 2022, published 2024).
Read-outs that look alike come from different tables or passages of the source.

Tests used:
[1] = target: cellular cGAS activity in baculovirus-stimulated THP1-Dual cells (Homo sapiens (Human), UniProt Q8N884); experiment: Human cGAS cell assay (THP1(vir) IC50): IFN induction in virus-stimulated THP1-Dual cells, IRF Lucia luciferase reporter; format: cell-based;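 further: Eight-point dilution series starting at 10 µM, 1% DMSO, 18 h at 37 °C, luminescence read-out, virus-free wells as 0% and DMSO-treated virus-stimulated wells as 100%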
[2] = target: cellular cGAS activity in dsDNA-stimulated human whole blood (Homo sapiens (Human), UniProt Q8N884); experiment: Human whole blood assay (hWB IC50): IFNα2a production after dsDNA transfection; format: cell-based;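 further: IFNα-2a in plasma measured by MSD electrochemiluminescence immunoassay after 22 h at 37 °C, 8-point dilution series from 10 µM top concentration, DMSO wells as controls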
Human cGAS enzyme = Human cGAS enzyme (Homo sapiens (Human), UniProt Q8N884); experiment: Human cGAS enzyme assay (hcGAS IC50, in vitro), cGAMP formation by RapidFire MS; format: biochemical;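 further: recombinant human cGAS activated by 45 bp dsDNA with 30 µM each ATP and GTP, 90 min, cGAMP vs cyclic-di-GMP standard by MS, 8-point titration from 10 µM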
[3] = tested on: pathway directly downstream of cGAS in cGAMP-stimulated THP1-Dual cells; experiment: cGAMP stimulated counter cell assay (THP1(cGAMP) IC50): IFN induction in cGAMP-stimulated THP1-Dual cells; format: cell-based, human; settings: for IC50: Homo sapiens, THP1-Dual; for Ratio THP(cGAMP) IC50/ THP(vir) IC50: selectivity for cGAS inhibition
From the text: 6.2 Method: Human cGAS Cell Assay and cGAMP Stimulated Counter Cell Assay (THP1(vir) IC50 and THP1(cGAMP) IC50)
THP1-Dual™ cells (InvivoGen #thpd-nfis) expressing IRF dependent Lucia luciferase reporter were used as basis for both assays. For the detection of cellular cGAS activity cells were stimulated by a baculovirus (pFastbac-1, Invitrogen, no coding insert) infection that delivers the cGAS enzyme stimulating double-stranded DNA (measurement of THP1(vir) IC50).
For the counter assay, cells were stimulated by cGAMP (SigmaAldrich #SML1232) to activate the identical pathway independent and directly downstream of cGAS (measurement of THP1(cGAMP) IC50). Pathway activity was monitored by measuring the Lucia luciferase activity induced by either DNA stimulated cGAS enzyme activity (measurement of THP1(vir) IC50) or by cGAMP directly (measurement of THP1(cGAMP) IC50, counter assay).
Compounds were delivered in 10 mM DMSO solution, serially diluted and transferred to the 384 well assay plate (Greiner #781201) using an Echo acoustic dispenser. Typically, 8 concentrations were used with the highest concentration at 10 μM in the final assay volume followed by ˜1:5 dilution steps. DMSO concentration was set to 1% in the final assay volume. The 384 well assay plate contained 21 test compounds (column 1-22), and DMSO in column 23 and 24.
Cells, cultivated according to manufacturer conditions, were harvested by centrifugation at 300 g/10 min and were then resuspended and diluted to 1.66E5 cells/ml in fresh cell culture medium (RPMI 1640 (Gibco #A10491-01), 10% FCS (Gibco #10500), 1× GlutaMax (Gibco #35050-061), 1× Pen/Strep solution (Gibco #15140-122), 100 μg/ml Normocin (InvivoGen #ant-nr), 100 μg/ml Zeocin (InvivoGen #ant-zn), 10 μg/ml Blasticidin S (Life Technologies #A11139-03)). The baculovirus solution was then added 1:200 (have varied according to virus batch) to the cells (measurement of THP1(vir) IC50). […] 30 μL of the cell/virus-mix were added to each well of the compound plate from column 1-23 via MultiDrop Combi dispenser (5000 cells/well). In column 24, 30 μl/5000 cells/well without virus were added as a low control.
The plates were then incubated for 18 h at 37° C. in a humidified incubator.
Following that, 15 μL of QuantiLuc detection reagent (InvivoGen #rep-qlcg5) were added to each well using a MultiDrop Combi. Measurement was done immediately after the addition using an EnVision reader (US-luminescence read-mode).
Data Evaluation and Calculation:
For data evaluation and calculation, the measurement of the low control was set as 0% control and the measurement of the high control was set as 100% control. The IC50 values were calculated using the standard 4 parameter logistic regression formula. Calculation: [y=(a−d)/(1+(x/c)^b)+d], a=low value, d=high value; x=conc M; c=IC50 M; b=slope

[4] = Table 1, virus-stimulated THP1 cells, read-out: THP(vir) IC50
[5] = Table 1, dsDNA-stimulated human whole blood
[6] = Table 1, cGAMP-stimulated THP1 cells, read-out: THP(cGAMP) IC50

Chain of cellular cGAS activity in baculovirus-stimulated THP1-Dual cells (Q8N884 whole entry): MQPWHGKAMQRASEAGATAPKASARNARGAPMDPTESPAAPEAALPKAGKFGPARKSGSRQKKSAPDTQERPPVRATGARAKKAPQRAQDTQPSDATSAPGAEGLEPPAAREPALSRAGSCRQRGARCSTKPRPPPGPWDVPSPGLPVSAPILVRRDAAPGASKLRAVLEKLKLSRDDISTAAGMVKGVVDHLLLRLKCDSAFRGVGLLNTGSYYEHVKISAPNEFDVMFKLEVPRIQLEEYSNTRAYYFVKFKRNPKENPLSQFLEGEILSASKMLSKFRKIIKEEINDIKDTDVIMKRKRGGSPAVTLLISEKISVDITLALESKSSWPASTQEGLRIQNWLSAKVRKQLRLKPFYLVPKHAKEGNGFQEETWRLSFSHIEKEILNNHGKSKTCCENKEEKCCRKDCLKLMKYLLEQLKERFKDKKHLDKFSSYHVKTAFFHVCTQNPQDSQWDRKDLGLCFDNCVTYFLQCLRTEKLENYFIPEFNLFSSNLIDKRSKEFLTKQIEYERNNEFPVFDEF
Chain of cellular cGAS activity in dsDNA-stimulated human whole blood (Q8N884 whole entry): as above
Chain of Human cGAS enzyme (Q8N884 whole entry): as above

SMILES | IC50 [1, 4] [nM] | IC50 [2, 5] [nM] | IC50 (Human cGAS enzyme; Table 1) [nM] | IC50 [3, 6] [nM] | Ratio THP(cGAMP) IC50/ THP(vir) IC50 ([3]; Table 1) | IC50 ([1]; Table 2, compounds from WO 2020/142729, read-out: THP1(vir) IC50) [nM] | IC50 ([2]; Table 2, compounds from WO 2020/142729) [nM] | IC50 ([3]; Table 2, compounds from WO 2020/142729, read-out: THP1(cGAMP) IC50) [nM] | IC50 ([1]; virus-stimulated THP1 cells, read-out: THP1(vir) IC50) [nM] | IC50 (Human cGAS enzyme; Table 2, compounds from WO 2020/142729 re-tested in the applicant's assay) [nM]
C[C@H]1CCCOCc2nc(c3oc4ccccc4c3n2)N2C[C@H](C[C@H]2C(=O)O)Oc2ncc(Cl)cc2[C@@]2(F)CCN(C[C@@H]2C)C1=O (single isomer, unassigned) [Example 09] | 240 | 161 | 45 | 3500 | 15 |  |  |  |  | 
C[C@H]1CN2CC[C@]1(F)c1cc(Cl)cnc1O[C@H]1C[C@@H](C(=O)O)N(C1)c1nc(nc3c1oc1ccccc13)CC(=O)NCCCC2=O [Example 01, (1R,9S,11S,34S)-4-Chloro-1-fluoro-34-methyl-26,31-dioxo-8,15-dioxa-6,12,23,27,32,37-hexaaza-heptacyclo[30.2.2.1^9,12.1^13,24.0^2,7.0^14,22.0^16,21]octatriaconta-2,4,6,13(37),14(22),16(21),17,19,23-nonaene-11-carboxylic acid] | 150 | 208 | 25 | 2900 | 19 |  |  |  |  | 
C[C@H]1CN2CC[C@]1(F)c1cc(Cl)cnc1O[C@H]1C[C@@H](C(=O)O)N(C1)c1nc(nc3c1oc1ccccc13)CC(=O)NCCOC2=O [Example 02, (1R,9S,11S,34S)-4-chloro-1-fluoro-34-methyl-26,31-dioxo-8,15,30-trioxa-6,12,23,27,32,37-hexaazaheptacyclo[30.2.2.1^9,12.1^13,24.0^14,22..0^16,21]octatriaconta-2,4,6,13(37),14(22),16(21),17,19,23-nonaene-11-carboxylic acid] | 110 | 115 | 17 | > 10000 | 94 |  |  |  |  | 
C[C@H]1CN2CC[C@]1(F)c1cc(Cl)cnc1O[C@H]1C[C@@H](C(=O)O)N(C1)c1nc(nc3c1oc1ccccc13)C(F)(F)CCCCCC2=O [Example 05, (1R,9S,11S,34S)-4-chloro-1,25,25-trifluoro-34-methyl-31-oxo-8,15-dioxa-6,12,23,32,37-pentaazaheptacyclo[30.2.2.1^9,12.1^13,24.0^2,7.0^14,22.0^16,21]octatriaconta-2,4,6,13,16,18,20,22,24(37)-nonaene-11-carboxylicacid] | 59 | 114 | 12 | 9400 | 158 |  |  |  |  | 
C[C@H]1CN2CC[C@]1(F)c1cc(Cl)cnc1O[C@H]1C[C@@H](C(=O)O)N(C1)c1nc(nc3c1oc1ccccc13)C(F)(F)CCCCC(F)(F)C2=O [Example 06, (1R,9S,11S,34S)-4-chloro-1,25,25,30,30-pentafluoro-34-methyl-31-oxo-8,15-dioxa-6,12,23,32,37-pentaazaheptacyclo[30.2.2.1^9,12.1^13,24.0^2,7.0^14,22.0^16,21]-octatriaconta-2,4,6,13(37),14(22),16(21),17,19,23-nonaene-11-carboxylic acid] | 150 | 222 | 18 | > 10000 | 65 |  |  |  |  | 
O=C(O)[C@@H]1C[C@H]2CN1c1nc(nc3c1oc1ccccc13)C(F)(F)CCCCCC(=O)N1CCC(F)(CC1)c1cc(Cl)cnc1O2 [Example 07] | 320 | 750 | 100 | 12000 | 37 |  |  |  |  | 
C[C@H]1CN2CC[C@]1(F)c1cc(Cl)cnc1O[C@H]1C[C@@H](C(=O)O)N(C1)c1nc(nc3c1oc1ccccc13)COCCCCC2=O [Example 08, (1R,9S,11S,34S)-4-chloro-1-fluoro-34-methyl-31-oxo-8,15,26-trioxa-6,12,23,32,37-pentaazabestacyclo[30.2.2.1^9,12.1^13,24.0^2,7.0^14,22.0^16,21]octatriaconta-2,4,6,13(37),14(22),16(21),17,19,23-nonaene-11-carboxylic acid] | 140 | 44 | 22 | > 10000 | 69 |  |  |  |  | 
C[C@H]1CN2CC[C@]1(F)c1cc(Cl)cnc1O[C@H]1C[C@@H](C(=O)O)N(C1)c1nc(nc3c1oc1ccccc13)COCCCC(F)(F)C2=O [Example 10, (1R,9S,11S,34S)-4-chloro-1,30,30-trifluoro-34-methyl-31-oxo-8,15,26-trioxa-6,12,23,32,37-pentaazaheptacyclo[30.2.2.1^9,12.1^13,24.0^2,7.0^14,22.0^16,21]octatriaconta-2,4,6,13,16,18,20,22,24(37)-nonaene-11-carboxylic acid] | 190 | 339 | 68 | 12000 | 61 |  |  |  |  | 
C[C@H]1CN2CC[C@]1(F)c1cc(Cl)cnc1O[C@H]1C[C@@H](C(=O)O)N(C1)c1nc(nc3c1oc1ccccc13)COC(=O)CCC2=O [Example 11, (1R,9S,11S,33S)-4-Chloro-1-fluoro-33-methyl-27,30-dioxo-8,15,26-trioxa-6,12,23,31,36-pentaazaheptacyclo[29.2.2.1^9,12.1^13,24.0^2,7.0^14,22.0^16,21]heptatriaconta-2,4,6,13(36),14(22),16(21),17,19,23-nonaene-11-carboxylic acid] | 11 | 9 | 2.8 | > 10000 | 902 |  |  |  |  | 
C[C@H]1CN2CC[C@]1(F)c1cc(Cl)cnc1O[C@H]1C[C@@H](C(=O)O)N(C1)c1nc(nc3c1oc1ccccc13)COCCCCCC2=O [Example 12] | 610 | 84 | 17 | 10000 | 17 |  |  |  |  | 
C[C@H]1CN2CC[C@]1(F)c1cc(Cl)cnc1O[C@H]1C[C@@H](C(=O)O)N(C1)c1nc(nc3c1oc1ccccc13)COCCCOC2=O [Example 13, (1R,9S,11S,34S)-4-chloro-1-fluoro-34-methyl-31-oxo-8,15,26,30-tetraoxa-6,12,23,32,37-pentaaabestacyclo[30.2.2.1^9,12.1^13,24.0^14,22.0^16,21]octatriaconta-2(7),3,5,13(37),14(22),16(21),17,19,23-nonaene-11-carboxylic acid] | 42 | 149 | 22 | 16000 | 256 |  |  |  |  | 
C[C@H]1CN2CC[C@]1(F)c1cc(Cl)cnc1O[C@H]1C[C@@H](C(=O)O)N(C1)c1nc(nc3c1oc1ccccc13)COCCOCC2=O [Example 14] | 36 | 136 | 15 | > 10000 | 282 |  |  |  |  | 
Cc1nc(N2C[C@@H](Cc3nn[nH]n3)C[C@H]2C(=O)O)c2oc3ccccc3c2n1 [Example 25] |  |  |  |  |  | > 17000 | > 9990 | > 17000 |  | 
C[C@H]1CN2CC[C@]1(F)c1cc(Cl)cnc1O[C@H]1C[C@@H](C(=O)O)N(C1)c1nc(nc3c1oc1ccccc13)CCCCOC2=O [Example 35, (1R,9S,11S,33S)-4-chloro-1-fluoro-33-methyl-30-oxo-8,15,29-trioxa-6,12,23,31,36-pentaazaheptacyclo[29.2.2.1^9,12.1^13,24.0^2,7.0^14,22.0^16,21]heptatriaconta-2,4,6,13(36),14(22),16(21),17,19,23-nonaene-11-carboxylic acid] | 830 | 409 |  |  |  |  |  |  |  | 
Cc1nc(N2C[C@@H](Cc3nn[nH]n3)C[C@H]2C(=O)O)c2oc3ccccc3c2n1 [Example No. 25 of WO 2020/142729, reference compound] |  |  |  |  |  |  |  |  | 17000 | 55
